Laboratory results published in the NIST ThermoML archive (doi:10.1021/je060271a).
Numbers after ± are expanded uncertainties.

Conditions: Liquid, Vibrating tube method

CCCC(=O)OCC(COC(=O)CCC)(COC(=O)CCC)COC(=O)CCC [pentaerythritol tetrabutyrate]
Conditions	mass density [kg/m3]
323.14 K, 26626 kPa	1043 ± 1.3
323.14 K, 26670 kPa	1042.8 ± 1.3
323.14 K, 26714 kPa	1042.8 ± 1.3
323.14 K, 26767 kPa	1043 ± 1.3
323.14 K, 26810 kPa	1043 ± 1.3
323.14 K, 26863 kPa	1043 ± 1.3
323.14 K, 26908 kPa	1043.1 ± 1.3
323.14 K, 26952 kPa	1043.1 ± 1.3
323.14 K, 26996 kPa	1043.1 ± 1.3
323.14 K, 27582 kPa	1043.5 ± 1.3
323.14 K, 27638 kPa	1043.5 ± 1.3
323.14 K, 27684 kPa	1043.6 ± 1.3
323.14 K, 27740 kPa	1043.6 ± 1.3
323.14 K, 27788 kPa	1043.6 ± 1.3
323.14 K, 27834 kPa	1043.6 ± 1.3
323.14 K, 27946 kPa	1043.8 ± 1.3
323.14 K, 28044 kPa	1043.9 ± 1.3
323.14 K, 28300 kPa	1044 ± 1.3
323.14 K, 28359 kPa	1044 ± 1.3
323.14 K, 28792 kPa	1044.3 ± 1.3
323.14 K, 28843 kPa	1044.3 ± 1.3
323.14 K, 28902 kPa	1044.3 ± 1.3
323.14 K, 28941 kPa	1044.3 ± 1.3
323.14 K, 29012 kPa	1044.3 ± 1.3
323.14 K, 29875 kPa	1044.9 ± 1.3
323.14 K, 29913 kPa	1045 ± 1.3
323.14 K, 29948 kPa	1045.1 ± 1.3
323.14 K, 29992 kPa	1045 ± 1.3
323.14 K, 30269 kPa	1045.3 ± 1.3
323.14 K, 30315 kPa	1045.2 ± 1.3
323.14 K, 30353 kPa	1045.4 ± 1.3
323.14 K, 30391 kPa	1045.3 ± 1.3
323.14 K, 30431 kPa	1045.3 ± 1.3
323.14 K, 30476 kPa	1045.2 ± 1.3
323.14 K, 30514 kPa	1045.3 ± 1.3
323.14 K, 32076 kPa	1046.4 ± 1.3
323.14 K, 32110 kPa	1046.4 ± 1.3
323.14 K, 32957 kPa	1046.8 ± 1.3
323.14 K, 33000 kPa	1046.9 ± 1.3
323.14 K, 33035 kPa	1046.8 ± 1.3
323.14 K, 33078 kPa	1046.9 ± 1.3
323.14 K, 33115 kPa	1046.9 ± 1.3
323.14 K, 33350 kPa	1047 ± 1.3
323.14 K, 33751 kPa	1047.3 ± 1.3
323.14 K, 33878 kPa	1047.3 ± 1.3
323.14 K, 33919 kPa	1047.4 ± 1.3
323.14 K, 33970 kPa	1047.4 ± 1.3
323.15 K, 3349 kPa	1027.1 ± 1.2
323.15 K, 3467.5 kPa	1027.3 ± 1.2
323.15 K, 3496.8 kPa	1027.3 ± 1.2
323.15 K, 3562.1 kPa	1027.3 ± 1.2
323.15 K, 5277.4 kPa	1028.8 ± 1.2
323.15 K, 5278.3 kPa	1028.7 ± 1.2
323.15 K, 5281.4 kPa	1028.8 ± 1.2
323.15 K, 5284.5 kPa	1028.8 ± 1.2
323.15 K, 5287 kPa	1028.7 ± 1.2
323.15 K, 5288.9 kPa	1028.7 ± 1.2
323.15 K, 5289.7 kPa	1028.8 ± 1.2
323.15 K, 5290.8 kPa	1028.8 ± 1.2
323.15 K, 5291.3 kPa	1028.8 ± 1.2
323.15 K, 5291.6 kPa	1028.8 ± 1.2
323.15 K, 5292 kPa	1028.8 ± 1.2
323.15 K, 5292.5 kPa	1028.8 ± 1.2
323.15 K, 5292.8 kPa	1028.8 ± 1.2
323.15 K, 5293.4 kPa	1028.7 ± 1.2
323.15 K, 5293.7 kPa	1028.9 ± 1.2
323.15 K, 5293.9 kPa	1028.8 ± 1.2
323.15 K, 5294 kPa	1028.7 ± 1.2
323.15 K, 5294.2 kPa	1028.9 ± 1.2
323.15 K, 5295.1 kPa	1028.9 ± 1.2
323.15 K, 5295.9 kPa	1029 ± 1.2
323.15 K, 5296.1 kPa	1028.7 ± 1.2
323.15 K, 5296.6 kPa	1028.7 ± 1.2
